Measured values reported in patent US20260263643A1, “BI-SPECIFIC ADAPTERS AND THEIR USE WITH UNIVERSAL CAR-T CELLS IN THE TREATMENT OF CAIX-EXPRESSING TUMORS” (Purdue Research Foundation, priority 2023, published 2026).
Entries after “also recorded” stand apart in the source; their conditions may differ.

Tests used:
MDA-CAIX tumor cells = test: Retention and surface exposure of CAIX bispecific adapters in MDA-CAIX tumor cells from treated mice; type: in vivo, mouse; details: for CAIX levels of tumor cells (MFI of FITC after staining with 100 nM meta-CAL-PEG6-FITC in vitro): MDA-CAIX tumors from treated mice, FIG. 11C
Description: MDA-CAIX tumors from mice in different treatment groups were dissected and digested into single cells 24 hours after the last injections with CAIX bispecific adapters at 500 nmol/kg. The total retention of the bispecific adapters was determined by the FITC fluorescence intensity analyzed by flow cytometry. To estimate the CAIX protein levels in the tumor cells, the cells were stained with 100 nM meta-CAL-PEG6-FITC for 1 hour at room temperature and analyzed by flow cytometry. The FITC exposure of the bispecific adapters on the tumor cell surface was analyzed by flow cytometry after staining with APC-anti-FITC antibody on ice for 30 minutes. Surface exposure of FITC was also analyzed in the cells stained with 100 nM meta-CAL-PEG6-FITC.

HT29 tumor = test: In vivo efficacy of CAIX targeting bispecific adapters on HT29 tumor model; set-up: species or system mouse; details: NSG mice, subcutaneous HT29, 10 million anti-FITC CAR-T cells plus adapter; FIG. 7B
Description: (§1) HT29 cells (1.5 million) were implanted into each NOD scid gamma (NSG) mouse by subcutaneous injection. When the tumor volumes reached about 100 mm^3, the treatment groups were injected with 10 million anti-FITC CAR-T cells and bispecific adapters as shown in FIG. 7A. The tumor volume and body weight were monitored regularly. Tumor volume was calculated using the formular: (length*width^2)/2.

HT29 cells = test: Total binding and FITC surface exposure of CAIX bispecific adapters on HT29 cells; type: cell-based; details: 1 μM adapter, 1 hour room temperature; FIG. 3A
Description: (§2) HT29 cells or MDA-CAIX cells were incubated with 1 μM bispecific adapters with different ligands to CAIX and different polyethylene glycol (PEG) linkers in complete RPMI medium (RPMI+10% FBS) for one hour at room temperature. Free compounds were washed away, and fluorescent intensity of fluorescein isothiocyanate (FITC) was analyzed by flow cytometry.
(§3) To analyze the surface exposure of the FITC moiety, the stained cells were incubated with allophycocyanin (APC)-anti-FITC antibody on ice for 30 minutes. Then the cells were washed, and the fluorescent intensity of APC was analyzed by flow cytometer.

MDA-CAIX cells [1] = test: Total binding and FITC surface exposure of CAIX bispecific adapters on MDA-CAIX cells; type: cell-based; details: 1 μM adapter, 1 hour room temperature; FIG. 3C
Description: as §2, §3

[2] = Body weight change of mice in HT29 tumor model; type: in vivo, mouse; details: HT29 tumor-bearing NSG mice treated with anti-FITC CAR-T cells plus adapter; FIG. 7C
Description: as §1

T cells = test: T cell counts in the blood and HT29 tumors from mice at end of treatments; set-up: species or system mouse; details: end of HT29 in vivo study
Description: At the end of the in vivo study on HT29 solid tumor model described in FIGS. 7A-7C, blood was collected from the mice, and the red blood cells in the blood were lysed by using red blood cell lysis buffer (BioLegend, San Diego, CA). The remaining cells were stained with anti-human CD3 antibody on ice for 30 minutes. The number of T cells was analyzed by flow cytometry. To analyze tumor-infiltrated T cells, tumors were dissected and digested to single cells. The digested cells were stained with Zombie Violet cell viability staining dye (BioLegend. San Diego, CA) and anti-human CD3 antibody. The percentage of CD3 T cells in total live cells was analyzed by flow cytometry.

[3] = test system: anti-FITC CAR-T cells co-cultured with MDA-CAIX cells; test: Bispecific adapter mediated IFNγ release from anti-FITC CAR-T cells co-cultured with MDA-CAIX cells (ELISA); type: cell-based; details: adapter concentration between 0.001 nM and 1 nM; MDA-CAIX co-culture; FIGS. 4B, 5B
Description: (§4) Anti-FITC CAR-T cells were incubated with an equal number of MDA-CAIX cells in the presence of bispecific adapters at different concentrations. The number of MDA-CAIX cells was determined at the end of the co-culture, and the percentage of cell lysis was calculated using the following formula: [(number of untreated cells−number of treated cells)/number of untreated cells]*100%.
Secretion of interferon gamma (IFNγ) from anti-FITC CAR-T cells was analyzed by enzyme-linked immunosorbent assay (ELISA) using the supernatants of the co-cultured medium at the end of the co-culture.
Secretion of IFNγ from anti-FITC CAR T cells was analyzed by ELISA using the supernatants of the co-cultured medium at the end of the co-culture.
Secretion of IFNγ from anti-FITC CAR T cells was analyzed by ELISA using the supernatants of the co-cultured medium at the end of the co-culture study.

[4] = test system: anti-FITC CAR-T cells co-cultured with HT29 cells; test: Bispecific adapter mediated anti-FITC CAR-T cell IFNγ release when co-cultured with HT29 cells (ELISA); type: cell-based; details: HT29 cells at 1:5 ratio, 40 hours
Description: (§5) Anti-FITC CAR-T cells were incubated with HT29 cells at 1:5 ratio in the presence of the bispecific adapters at different concentrations for 40 hours. Secretion of IFNγ from anti-FITC CAR-T cells was analyzed by ELISA using the supernatants of the co-cultured medium at the end of the co-culture study.
as §5, with “CAR T” for “CAR-T”

MDA-CAIX cells [5] = test: Bispecific adapter mediated anti-FITC CAR-T cell cytotoxicity to MDA-CAIX cells; type: cell-based
Description: as §4
as §4, with “presence of the bispecific adapters” for “presence of bispecific adapters”
Anti-FITC CAR T cells were incubated with an equal number of MDA-CAIX cells in the presence of the bispecific adapters at different concentrations. The number of MDA-CAIX cells were determined at the end of the co-culture and the percentage of cell lysis was calculated using the following formula: [(number of untreated cells−number of treated cells)/number of untreated cells]*100%.

HT29 tumor cells = test: Retention and surface exposure of CAIX bispecific adapters in HT29 tumor cells from injected mice; type: in vivo, mouse; details: 500 nmol/kg, 24 hours after injection, APC-anti-FITC staining; FIG. 8C
Description: HT29 tumor bearing mice were injected with CAIX bispecific adapters at 500 nmol/kg. After injection (24 hours later), the tumors were dissected and digested into single cells. The total retention of the bispecific adapters was determined by the FITC fluorescence intensity analyzed by flow cytometry. To analyze the FITC exposure of the bispecific adapters on the tumor cell surface, the digested tumor cells were stained with APC-anti-FITC antibody on ice for 30 minutes. After washing away unbound antibody, the fluorescent intensity of APC was analyzed by flow cytometry.

MDA-CAIX tumors = test: In vivo efficacy of CAIX targeting bispecific adapters on MDA-CAIX tumor model; set-up: species or system mouse; details: NSG mice, subcutaneous MDA-CAIX, 10 million anti-FITC CAR T-cells plus adapter; FIG. 10B
Description: (§6) MDA-CAIX cells (5 million) were implanted into each NSG mouse by subcutaneous injection. When the tumor volumes reached about 100 mm^3, the treatment groups were injected with 10 million anti-FITC CAR T-cells and indicated bispecific adapters as shown in FIG. 10A. The tumor volume and body weight were monitored regularly. Tumor volume was calculated using the formular: (length*width^2)/2.

[6] = Body weight change of mice in KB tumor model; type: in vivo, mouse; details: KB tumor-bearing NSG mice; FIG. 16C
Description: as §6, with “KB” for “MDA-CAIX”, “(1” for “(5”, “50” for “100”, “CAR-T cells” for “CAR T-cells”, “16A.” for “10A.”, “formula:” for “formular:”

[7] = low concentrations (between 0.001 nM and 0.1 nM), FIG. 5A

Row | SMILES | CAIX levels of tumor cells (MFI of FITC after staining with 100 nM meta-CAL-PEG6-FITC in vitro) (MDA-CAIX tumor cells) | growth of HT29 tumor (tumor volume) (HT29 tumor) | total binding to HT29 cells (MFI of FITC) (HT29 cells) | IFNγ release from anti-FITC CAR-T cells [3] | efficacy of anti-FITC CAR-T cell cytotoxicity, lysis (%) (MDA-CAIX cells [5]; [7]) | surface retention and FITC exposure in HT29 tumors (MFI of APC-anti-FITC) (HT29 tumor cells) | growth of MDA-CAIX tumors (tumor volume) (MDA-CAIX tumors) | also measured
1 | NS(=O)(=O)c1nnc(NC(=O)CCCCCCCNC(=S)Nc2ccc(-c3c4ccc(=O)cc-4oc4cc(O)ccc34)c(C(=O)O)c2)s1 [Aza-FITC] | slightly higher CAIX levels than tumors treated with meta-CAL-FITC with PEG3 or PEG6 | slightly inhibited the growth of HT29 tumor | better total binding to HT29 cells than the other adapters | – | – | – | – | total binding to MDA-CAIX cells (MFI of FITC) (MDA-CAIX cells [1]): better total binding to MDA-CAIX cells
2 | NS(=O)(=O)c1c(F)c(F)c(S(=O)(=O)CCC(=O)NCCOCCOCCOCCOCCOCCOCCOCCOCCOCCNC(=S)Nc2ccc(-c3c4ccc(=O)cc-4oc4cc(O)ccc34)c(C(=O)O)c2)c(NC2CCCCCCC2)c1F [meta-CAL-PEG9-FITC] | – | significantly inhibited the growth of HT29 tumor | – | higher levels of IFNγ release from anti-FITC CAR-T cells than meta-CAL-PEG3-FITC | higher efficacy than meta-CAL-PEG3-FITC | better FITC exposure than meta-CAL-PEG3-FITC | – | body weight change [2]: lost body weight; T cell counts in blood (T cells; anti-human CD3 staining, FIG. 9A): more T cells than the blood from other treatment groups; tumor-infiltrated T cells (CD3+ T cells/live cells) (T cells; digested tumors, FIG. 9B): more tumor-infiltrated T cells; IFNγ released from anti-FITC CAR-T cells ([4]; low concentrations (<0.1 nM), FIG. 15): highest level of IFNγ released from anti-FITC CAR-T cells
3 | NS(=O)(=O)c1c(F)c(F)c(S(=O)(=O)CCC(=O)NCCOCCOCCOCCNC(=S)Nc2ccc(-c3c4ccc(=O)cc-4oc4cc(O)ccc34)c(C(=O)O)c2)c(NC2CCCCCCC2)c1F [meta-CAL-PEG3-FITC] | – | slightly inhibited the growth of HT29 tumor | better total binding to HT29 cells than the other adapters | – | – | – | slightly inhibited the growth of MDA-CAIX tumors | –
4 | NS(=O)(=O)c1c(F)c(F)c(S(=O)(=O)CCC(=O)NCCOCCOCCOCCOCCOCCOCCNC(=S)Nc2ccc(-c3c4ccc(=O)cc-4oc4cc(O)ccc34)c(C(=O)O)c2)c(NC2CCCCCCC2)c1F [meta-CAL-PEG6-FITC] | – | – | – | higher level of IFNγ release from anti-FITC CAR-T cells than ortho-CAL-PEG6-FITC and Aza-FITC; also recorded: higher levels of IFNγ release from anti-FITC CAR-T cells than meta-CAL-PEG3-FITC | higher efficacy than meta-CAL-PEG3-FITC | better FITC exposure than meta-CAL-PEG3-FITC | – | surface retention and FITC exposure in MDA-CAIX tumors (MFI of APC-anti-FITC) (MDA-CAIX tumor cells; 24 hours after last injection at 500 nmol/kg, FIG. 11D): slightly better surface retention and FITC exposure than the other compounds; efficacy of anti-FITC CAR-T cell cytotoxicity, lysis (%) (MDA-CAIX cells [5]; adapter between 0.001 nM and 10 nM, equal number of CAR-T and MDA-CAIX cells, FIG. 4A): higher than ortho-CAL-PEG6-FITC and Aza-FITC
5 | NS(=O)(=O)c1c(F)c(F)c(SCCC(=O)NCCOCCOCCOCCOCCOCCOCCNC(=S)Nc2ccc(-c3c4ccc(=O)cc-4oc4cc(O)ccc34)c(C(=O)O)c2)c(F)c1NC1CCCCCCC1 [ortho-CAL-PEG6-FITC] | complete eradication of CAIX^+ tumor cells by CAR T cells | – | – | – | – | – | significantly inhibited the growth of MDA-CAIX tumors | staining of anti-FITC antibody (MFI of APC-anti-FITC after staining with 100 nM meta-CAL-PEG6-FITC in vitro) (MDA-CAIX tumor cells; MDA-CAIX tumor cells from treated mice, FIG. 11E): almost no staining of anti-FITC antibody; body weight change [6]: did not induce significant body weight loss; also recorded: didn't induce significant body weight loss; IFNγ released from anti-FITC CAR-T cells ([4]; ELISA, FIGS. 14, 15): lower levels of IFNγ released from anti-FITC CAR-T cells
